Data published in patent US11993591B2, “Chromen-4-one derivatives for the treatment and prophylaxis of hepatitis B virus disease” (Hoffmann-La Roche Inc., priority 2018, dated 2024).

test system: HBV cccDNA (HBeAg level) in HepDES19 cells; assay: Engineered HepDES19 primary screen assay (HBeAg as surrogate marker for cccDNA); format: cell-based; conditions: Hepatitis B virus, HepDES19, 120 h
Source text: The assay was employed to screen for novel cccDNA inhibitors. HepDES19 is a cccDNA-producing cell line. In this cell line, HBeAg in the cell culture supernatant as surrogate marker, as HBeAg production depends on cccDNA level and activity. HepDES19 is an engineered cell line which contains a 1.1 unit length HBV genome, and pgRNA transcription from the transgene is controlled by Tetracycline (Tet). In the absence of Tet, pgRNA transcription will be induced, but HBV e antigen (HBeAg) could not be produced from this pgRNA due to very short leader sequence before the HBeAg start codon and the start codon is disrupted. Only after cccDNA is formed, the missing leader sequence and start codon mutation would be restored from the 3′-terminal redundancy of pgRNA, and then HBeAg could be synthesized. Therefore, HBeAg could be used as a surrogate marker for cccDNA (Zhou, T. et al., Antiviral Res. (2006), 72(2), 116-124; Guo, H. et al., J. Virol. (2007), 81(22), 12472-12484).
HepDES19 cells were seeded at 2×10^6 cells per T150 flask and cultured with the culture medium (Dulbecco's Modified Eagle Medium: Nutrient Mixture F-12 [DMEM-F12, Gibco Cat. 11320-82], 10% Fetal Bovine Serum [FBS, Clontech Cat. 631101], 0.1 mM Non-Essential Amino Acids Solution [NEAA, Gibco Cat. 11140-050], 50 μg/mL Penicillin-Streptomycin [PS, Invitrogen Cat. 15140-163], 500 μg/mL Geneticin [G418, Invitrogen Cat. 10131-027]) containing 3 μg/mL Tet (Sigma, Cat. 87128) for 5 days. Cells were then seeded at 4×10^6 cells per T150 in the same culture medium as described above in the absence of Tet for 8 days. Cells were then harvested and frozen at density of 2×10^6 cells per mL. For compound testing, the frozen cells were thawed and seeded into 96-well plates at a density of 6×10^4 cells per well. At 24 hours after seeding, half log serial dilutions of compounds made with Dimethyl sulfoxide (DMSO, Sigma, Cat. D2650) were further diluted with the same culture medium as described above before they were added to the cells to reach desired final compound concentrations and 1% DMSO concentration. Plates were then incubated at 37° C. for another 5 days before measurement of HBeAg level and cell viability. Intracellular HBeAg level were measured with enzyme-linked immunosorbent assay (ELISA) kit (Shanghai Kehua Diagnostic Medical Products Co., Ltd). Cell viability was assessed using Cell Counting Kit-8 (Donjindo, Cat. CK04-20). IC50 values were derived from the dose-response curve using 4 parameter logistic curve fit method.
The compounds of the present invention were tested for their capacity to inhibit extracellular HBeAg level as described herein.

| Structure (SMILES) | IC50 [µM] |
| --- | --- |
| O=C(O)COCCOc1cc(Cl)ccc1NC(=O)c1cc(=O)c2cccc(Cl)c2o1 [Example 24, 2-(2-(5-chloro-2-(8-chloro-4-oxo-chromene-2-carboxamido)phenoxy)ethoxy)acetic Acid] | 13.9 |
| O=C(Nc1ccc(Cl)cc1OCCOC1CC(C(=O)O)C1)c1cc(=O)c2cccc(Cl)c2o1 (centres unmarked) [Example 34, 3-(2-(5-chloro-2-(8-chloro-4-oxo-chromene-2-carboxamido)phenoxy)ethoxy)cyclobutane-1-carboxylic Acid] | 44.6 |
| COC(=O)c1cccc(N2CCN(c3cc(=O)c4cccc(Cl)c4o3)CC2)c1 [Example 53, Methyl 3-(4-(8-chloro-4-oxo-chromen-2-yl)piperazin-1-yl)benzoate] | 15 |
| COC(=O)c1cc(Cl)ccc1NC(=O)c1cc(=O)c2cccc(Cl)c2o1 [Example 25, Methyl 5-chloro-2-(8-chloro-4-oxo-chromene-2-carboxamido)benzoate] | 16.2 |
| O=C(O)CCCOc1cc(Cl)ccc1NC(=O)c1cc(=O)c2cc(Cl)cc(Cl)c2o1 [Example 11, 4-(5-chloro-2-(6,8-dichloro-4-oxo-chromene-2-carboxamido)phenoxy)butanoic Acid] | 3.12 |
| COc1ccc2c(c1)CN(c1cc(=O)c3cccc(Cl)c3o1)C2=O [Example 43, 2-(8-chloro-4-oxo-chromen-2-yl)-5-methoxyisoindolin-1-one] | 4.78 |
| Cc1cc(Cl)ccc1NC(=O)c1cc(=O)c2cccc(Cl)c2o1 [Example 8, 8-chloro-N-(4-chloro-2-methylphenyl)-4-oxo-chromene-2-carboxamide] | 0.32 |
| O=C(c1cc(=O)c2cccc(Cl)c2o1)N1CCc2cccc(Cl)c2C1 [Example 28, 8-chloro-2-(8-chloro-3,4-dihydro-1H-isoquinoline-2-carbonyl)chromen-4-one] | 24.3 |
| COc1ccc(CN(C)c2cc(=O)c3cccc(Cl)c3o2)cc1 [Example 48, 8-chloro-2-((4-methoxybenzyl)(methyl)amino)-chromen-4-one] | 12.1 |
| CCOC(=O)c1nnc(NC(=O)c2cc(=O)c3cccc(Cl)c3o2)s1 [Example 35, Ethyl 5-(8-chloro-4-oxo-chromene-2-carboxamido)-1,3,4-thiadiazole-2-carboxylate] | 44.6 |
| O=C(O)C1CC(OCCOc2ccc3c(c2)CCN(c2cc(=O)c4cccc(Cl)c4o2)C3=O)C1 (centres unmarked) [Example 58, 3-(2-((2-(8-chloro-4-oxo-chromen-2-yl)-1-oxo-1,2,3,4-tetrahydroisoquinolin-6-yl)oxy)ethoxy)cyclobutanecarboxylic Acid] | 23.4 |
| Cc1cc(NC(=O)c2cc(=O)c3cccc(Cl)c3o2)ncc1Br [Example 23, N-(5-bromo-4-methylpyridin-2-yl)-8-chloro-4-oxo-chromene-2-carboxamide] | 11.9 |
| COc1cc(Br)cnc1NC(=O)c1cc(=O)c2cccc(Cl)c2o1 [Example 32, N-(5-bromo-3-methoxypyridin-2-yl)-8-chloro-4-oxo-chromene-2-carboxamide] | 33.7 |
| COC(=O)c1ccc(CNC(=O)c2cc(=O)c3cccc(Cl)c3o2)cc1 [Example 26, Methyl 4-((8-chloro-4-oxo-chromene-2-carboxamido)methyl)benzoate] | 20.6 |
| CC(C)(C)OC(=O)N1CC2(C1)CN(c1cc(=O)c3cccc(Cl)c3o1)C2 [Example 62, Tert-butyl 6-(8-chloro-4-oxo-chromen-2-yl)-2,6-diazaspiro[3.3]heptane-2-carboxylate] | 33.2 |
| O=C(O)C1CC(OCCOc2ccc(C3CCN(c4cc(=O)c5cc(F)cc(Cl)c5o4)CC3)cc2)C1 (centres unmarked) [Example 50, 3-(2-(4-(1-(8-chloro-6-fluoro-4-oxo-chromen-2-yl)piperidin-4-yl)phenoxy)ethoxy)cyclobutane-1-carboxylic Acid] | 14.1 |
| O=C(c1cc(=O)c2cccc(Cl)c2o1)N1CCCc2ccc([N+](=O)[O-])cc21 [Example 33, 8-chloro-2-(7-nitro-3,4-dihydro-2H-quinoline-1-carbonyl)chromen-4-one] | 35.3 |
| CN(Cc1ccc(OCCOC2CC(C(=O)O)C2)cc1)c1cc(=O)c2cccc(Cl)c2o1 (centres unmarked) [Example 56, 3-(2-(4-(((8-chloro-4-oxo-chromen-2-yl)(methyl)amino)methyl)phenoxy)ethoxy)cyclobutanecarboxylic acid] | 19.6 |
| O=C(O)C1CC(OCCOc2ccc3c(c2)CN(c2cc(=O)c4cccc(Cl)c4o2)C3=O)C1 (centres unmarked) [Example 64, 3-(2-((2-(8-chloro-4-oxo-chromen-2-yl)-1-oxoisoindolin-5-yl)oxy)ethoxy)cyclobutanecarboxylic Acid] | 36.6 |
| COC(=O)c1cccc(COC2CC3CCC(C2)N3c2cc(=O)c3cccc(Cl)c3o2)c1 (centres unmarked) [Example 41, Methyl 3-(((8-(8-chloro-4-oxo-chromen-2-yl)-8-azabicyclo[3.2.1]octan-3-yl)oxy)methyl)benzoate] | 3.99 |
| COc1ccc(CNc2oc3c(Cl)cccc3c(=O)c2I)cc1 [Example 42, 8-chloro-3-iodo-2-((4-methoxybenzyl)amino)-chromen-4-one] | 4.34 |
| O=c1c(I)c(-n2ccc(OCc3ccccc3)cc2=O)oc2c(Cl)cccc12 [Example 46, 4-benzyloxy-1-(8-chloro-3-iodo-4-oxo-chromen-2-yl)pyridin-2-one] | 9.66 |
| COC(=O)C1CC(OCCOc2ccc3c(c2)C(=O)N(c2cc(=O)c4cccc(Cl)c4o2)C3)C1 (centres unmarked) [Example 54, Methyl 3-(2-((2-(8-chloro-4-oxo-chromen-2-yl)-3-oxoisoindolin-5-yl)oxy)ethoxy)cyclobutanecarboxylate] | 16 |
| CC1c2ccc(O)cc2CCN1c1cc(=O)c2cccc(Cl)c2o1 (centres unmarked) [Example 57, 8-chloro-2-(6-hydroxy-1-methyl-3,4-dihydro-1H-isoquinolin-2-yl)chromen-4-one] | 20 |
| Cc1cc(O)ccc1NC(=O)c1cc(=O)c2cccc(Cl)c2o1 [Example 30, 8-chloro-N-(4-hydroxy-2-methylphenyl)-4-oxo-chromene-2-carboxamide] | 25.9 |
| O=c1c(I)c(N2CCC(O)CC2)oc2c(Cl)cccc12 [Example 61, 8-chloro-2-(4-hydroxypiperidin-1-yl)-3-iodo-chromen-4-one] | 30.9 |
